In patent US3932425A, “Benzospiran derivatives” (The Upjohn Company, priority 1974, dated 1976):

Columns and labels:
Assay type in all cases: in vivo
[1] = test system: mice; experiment: Nicotine antagonism test (nicotine salicylate 2 mg./kg. overstimulation, convulsions, tonic extensor fits, death); conditions: Mus musculus, ip, intraperitoneal injection 30 minutes before nicotine salicylate 2 mg./kg., (3) = death, read-out: ED50, Ni (nicotine antagonism (3) test)
Procedure: (§1) Tranquilizing effects of compounds of this invention are shown by the following tests in mice:
Nicotine antagonism test: Mice in a group of 6 are injected with the test compound. Thirty minutes later the mice including control (untreated) mice are injected with nicotine salicylate (2 mg./kg.). The control mice show overstimulation, i.e., (1) running convulsions followed by (2) tonic extensor fits; followed by (3) death.
Ni = nicotine antagonism (3) test

[2] = test system: mice; experiment: Chimney test (tranquilizing effect; ability of mice to back up and out of a vertical glass cylinder within 30 seconds); conditions: Mus musculus, ip, intraperitoneal injection, 50 percent of the mice failed within 30 seconds, read-out: ED50, Ch (chimney test)
Description: (§2) The free bases and acid addition salts of the novel compounds of Formula I are useful as central nervous system (CNS) depressants when administered to humans and animals.
as §1
Chimney test: [Med. Exp. 4, 145 (1961)]: The test determines the ability of mice to back up and out of a verticle glass cylinder within 30 seconds. At the effective dosage, 50 percent of the mice failed doing it.

[3] = test system: mice; experiment: Pedestal test (tranquilizing effect; mice staying on the pedestal for more than 1 minute); conditions: Mus musculus, ip, 1 min, intraperitoneal injection, stay on the pedestal for more than 1 minute, read-out: ED50, P (pedestal test)
Procedure: as §2, §1
Pedestal test: The untreated mouse leaves a standard pedestal in less than a minute to climb back to the floor of the standard mouse box. Tranquilized mice will stay on the pedestal for more than 1 minute.

[4] = test system: mice; experiment: Dish test (tranquilizing effect; mice remaining in Petri dish for more than 3 minutes); conditions: Mus musculus, ip, 0.05 h, intraperitoneal injection, 50 percent of the mice remain in the dish more than 3 minutes, read-out: ED50, D (dish test)
Procedure: as §2, §1
Dish test: Mice in Petri dishes (10 cm. diameter, 5 cm. high, partially embedded in wood shavings), climb out in a very short time, when not treated. Mice remaining in the dish for more than 3 minutes indicates tranquilization. ED50 equals the dose of test compound at which 50 percent of the mice remain in the dish.

[5] = test system: rats; experiment: Hypotensive activity (manner of Weeks and Jones, Proc. Soc. Exp. Biol. and Med. 104, 646 (1960)); conditions: Rattus norvegicus; oral administration to rats; read-out: MED100 (minimal effective dose), hypotensive
Description: The free bases and pharmacologically acceptable acid addition salts of the compounds of Formula I (a, b and c) are also useful in lowering blood pressure when administered to humans and animals. This activity makes them useful in the treatment of essential hypertension. […] Exp. Biol. and Med. 104, 646 (1960). The following compounds typical of this invention have (by oral administration to rats) MED100 (minimal effective dose) as shown in the table below.

| Structure (SMILES) | ED50 [1] [mg/kg] | ED50 [2] [mg/kg] | ED50 [3] [mg/kg] | ED50 [4] [mg/kg] | minimal effective dose [5] [mg/kg] |
| --- | --- | --- | --- | --- | --- |
| Cl.O=C(CCCNC1CCC2(CCCc3ccccc32)CC1)c1ccc(F)cc1 (centres unmarked) [4'-Fluoro-4-[3',4'-dihydrospiro[cyclohexane-1,1'(2'H)-naphthalen]-4-ylamino]butyrophenone hydrochloride] | 5 | 25 | 16 | 10 | – |
| Cl.O=C(CCCNC1CCC2(CC1)Cc1ccccc1C2)c1ccc(F)cc1 [4'-Fluoro-4-[[spiro[cyclohexane-1,2'-indan]-4-yl]amino]butyrophenone hydrochloride] | – | – | – | – | 50 |
| Cl.O=C(CCCNC1CCC2(CCc3ccccc3C2)CC1)c1ccc(F)cc1 (centres unmarked) [4'-Fluoro-4-[[3',4'-dihydrospiro[cyclohexane-1,2'(1'H)-naphthalen]-4-yl]amino]butyrophenone hydrochloride] | 7 | 9.9 | 12.5 | 9.9 | – |
| CN(CCCC(=O)c1ccc(F)cc1)C1CCC2(CC1)Cc1ccccc1C2.Cl [4'-Fluoro-4-[methyl[spiro[cyclohexane-1,2'-indan]-4-yl]amino]butyrophenone hydrochloride] | 4 | 16 | 9 | 3.6 | – |
| Cl.O=C(CCCNC1CCC2(CC1)Cc1ccccc1C2O)c1ccc(F)cc1 (centres unmarked) [4'-Fluoro-4-[[1'-hydroxyspiro[cyclohexane-1,2'-indan]-4-yl]amino]butyrophenone hydrochloride] | – | – | – | – | 50 |
